Measured values as given in patent US9340590B2 (priority 2011, dated 2016).
Positions of bridges follow the written chain, without caps; N, C: chain ends. Residues, ends and D or L forms follow the SMILES beside them.

Experiments:
Assay in all cases: cell-based
[1] = biological target: hNav1.3 (Homo sapiens, UniProt Q9NY46); settings: IonWorks Quattro, use-dependent protocol, hNav1.3; read-out: IWQ Use Nav1.3
[2] = biological target: hNav1.5 (Homo sapiens, UniProt Q14524); settings: IonWorks Quattro, use-dependent protocol, hNav1.5; read-out: IWQ Use Nav1.5
[3] = biological target: hNav1.7 (Homo sapiens, UniProt Q15858); type: cell-based; settings: IonWorks Quattro, use-dependent protocol, hNav1.7; read-out: IWQ Use Nav1.7
Chain of hNav1.7 (Q15858 whole entry, looked up): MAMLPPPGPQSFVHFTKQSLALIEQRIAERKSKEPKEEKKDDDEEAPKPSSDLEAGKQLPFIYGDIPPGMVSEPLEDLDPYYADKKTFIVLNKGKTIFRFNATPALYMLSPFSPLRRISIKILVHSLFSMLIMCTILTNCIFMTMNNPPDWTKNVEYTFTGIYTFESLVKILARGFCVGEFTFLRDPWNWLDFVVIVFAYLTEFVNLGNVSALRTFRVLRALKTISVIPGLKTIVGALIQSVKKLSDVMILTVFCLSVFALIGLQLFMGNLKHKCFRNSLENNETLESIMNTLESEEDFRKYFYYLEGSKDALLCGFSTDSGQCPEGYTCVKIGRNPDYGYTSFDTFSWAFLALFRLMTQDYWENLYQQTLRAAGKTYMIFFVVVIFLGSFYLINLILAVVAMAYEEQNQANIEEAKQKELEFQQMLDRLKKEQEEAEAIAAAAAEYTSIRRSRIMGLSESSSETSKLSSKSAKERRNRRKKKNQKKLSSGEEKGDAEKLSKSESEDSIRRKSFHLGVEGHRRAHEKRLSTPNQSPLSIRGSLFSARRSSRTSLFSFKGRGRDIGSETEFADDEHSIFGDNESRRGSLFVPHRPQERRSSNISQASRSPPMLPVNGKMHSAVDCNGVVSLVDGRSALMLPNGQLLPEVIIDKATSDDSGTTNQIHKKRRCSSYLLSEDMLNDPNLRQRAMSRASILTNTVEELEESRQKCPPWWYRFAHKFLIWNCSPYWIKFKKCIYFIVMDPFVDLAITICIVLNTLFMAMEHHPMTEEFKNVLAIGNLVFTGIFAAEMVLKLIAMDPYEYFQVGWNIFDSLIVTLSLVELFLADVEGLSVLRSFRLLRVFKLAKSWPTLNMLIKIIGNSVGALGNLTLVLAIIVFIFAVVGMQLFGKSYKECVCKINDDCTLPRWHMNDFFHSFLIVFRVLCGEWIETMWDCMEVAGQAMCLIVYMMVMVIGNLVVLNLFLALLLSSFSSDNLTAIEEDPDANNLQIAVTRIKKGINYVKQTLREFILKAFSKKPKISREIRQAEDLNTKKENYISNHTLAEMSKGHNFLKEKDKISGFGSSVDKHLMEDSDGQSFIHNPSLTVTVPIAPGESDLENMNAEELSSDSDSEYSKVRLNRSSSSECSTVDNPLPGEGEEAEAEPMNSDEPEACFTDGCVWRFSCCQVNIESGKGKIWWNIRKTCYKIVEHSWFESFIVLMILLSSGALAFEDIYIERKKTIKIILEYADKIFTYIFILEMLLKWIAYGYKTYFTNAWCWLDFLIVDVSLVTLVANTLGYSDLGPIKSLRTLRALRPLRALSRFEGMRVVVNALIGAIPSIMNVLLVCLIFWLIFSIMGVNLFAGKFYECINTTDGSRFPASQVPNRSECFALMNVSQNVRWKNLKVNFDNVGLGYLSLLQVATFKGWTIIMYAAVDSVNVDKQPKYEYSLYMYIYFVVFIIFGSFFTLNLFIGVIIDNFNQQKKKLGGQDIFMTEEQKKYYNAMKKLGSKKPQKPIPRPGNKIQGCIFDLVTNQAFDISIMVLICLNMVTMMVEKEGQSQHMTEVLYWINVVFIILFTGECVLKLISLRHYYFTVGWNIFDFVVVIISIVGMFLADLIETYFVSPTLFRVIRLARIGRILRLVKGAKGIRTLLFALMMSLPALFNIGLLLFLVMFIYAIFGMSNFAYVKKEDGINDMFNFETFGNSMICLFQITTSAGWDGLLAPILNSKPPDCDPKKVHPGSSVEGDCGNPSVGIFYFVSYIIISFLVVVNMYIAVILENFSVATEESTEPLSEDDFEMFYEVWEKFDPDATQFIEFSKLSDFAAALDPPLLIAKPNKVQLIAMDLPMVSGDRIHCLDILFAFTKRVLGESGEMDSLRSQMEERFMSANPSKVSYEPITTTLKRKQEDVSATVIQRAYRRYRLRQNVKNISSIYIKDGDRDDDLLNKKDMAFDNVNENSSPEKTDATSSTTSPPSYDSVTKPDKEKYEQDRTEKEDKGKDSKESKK

Chain of hNav1.3 (Q9NY46 whole entry, looked up): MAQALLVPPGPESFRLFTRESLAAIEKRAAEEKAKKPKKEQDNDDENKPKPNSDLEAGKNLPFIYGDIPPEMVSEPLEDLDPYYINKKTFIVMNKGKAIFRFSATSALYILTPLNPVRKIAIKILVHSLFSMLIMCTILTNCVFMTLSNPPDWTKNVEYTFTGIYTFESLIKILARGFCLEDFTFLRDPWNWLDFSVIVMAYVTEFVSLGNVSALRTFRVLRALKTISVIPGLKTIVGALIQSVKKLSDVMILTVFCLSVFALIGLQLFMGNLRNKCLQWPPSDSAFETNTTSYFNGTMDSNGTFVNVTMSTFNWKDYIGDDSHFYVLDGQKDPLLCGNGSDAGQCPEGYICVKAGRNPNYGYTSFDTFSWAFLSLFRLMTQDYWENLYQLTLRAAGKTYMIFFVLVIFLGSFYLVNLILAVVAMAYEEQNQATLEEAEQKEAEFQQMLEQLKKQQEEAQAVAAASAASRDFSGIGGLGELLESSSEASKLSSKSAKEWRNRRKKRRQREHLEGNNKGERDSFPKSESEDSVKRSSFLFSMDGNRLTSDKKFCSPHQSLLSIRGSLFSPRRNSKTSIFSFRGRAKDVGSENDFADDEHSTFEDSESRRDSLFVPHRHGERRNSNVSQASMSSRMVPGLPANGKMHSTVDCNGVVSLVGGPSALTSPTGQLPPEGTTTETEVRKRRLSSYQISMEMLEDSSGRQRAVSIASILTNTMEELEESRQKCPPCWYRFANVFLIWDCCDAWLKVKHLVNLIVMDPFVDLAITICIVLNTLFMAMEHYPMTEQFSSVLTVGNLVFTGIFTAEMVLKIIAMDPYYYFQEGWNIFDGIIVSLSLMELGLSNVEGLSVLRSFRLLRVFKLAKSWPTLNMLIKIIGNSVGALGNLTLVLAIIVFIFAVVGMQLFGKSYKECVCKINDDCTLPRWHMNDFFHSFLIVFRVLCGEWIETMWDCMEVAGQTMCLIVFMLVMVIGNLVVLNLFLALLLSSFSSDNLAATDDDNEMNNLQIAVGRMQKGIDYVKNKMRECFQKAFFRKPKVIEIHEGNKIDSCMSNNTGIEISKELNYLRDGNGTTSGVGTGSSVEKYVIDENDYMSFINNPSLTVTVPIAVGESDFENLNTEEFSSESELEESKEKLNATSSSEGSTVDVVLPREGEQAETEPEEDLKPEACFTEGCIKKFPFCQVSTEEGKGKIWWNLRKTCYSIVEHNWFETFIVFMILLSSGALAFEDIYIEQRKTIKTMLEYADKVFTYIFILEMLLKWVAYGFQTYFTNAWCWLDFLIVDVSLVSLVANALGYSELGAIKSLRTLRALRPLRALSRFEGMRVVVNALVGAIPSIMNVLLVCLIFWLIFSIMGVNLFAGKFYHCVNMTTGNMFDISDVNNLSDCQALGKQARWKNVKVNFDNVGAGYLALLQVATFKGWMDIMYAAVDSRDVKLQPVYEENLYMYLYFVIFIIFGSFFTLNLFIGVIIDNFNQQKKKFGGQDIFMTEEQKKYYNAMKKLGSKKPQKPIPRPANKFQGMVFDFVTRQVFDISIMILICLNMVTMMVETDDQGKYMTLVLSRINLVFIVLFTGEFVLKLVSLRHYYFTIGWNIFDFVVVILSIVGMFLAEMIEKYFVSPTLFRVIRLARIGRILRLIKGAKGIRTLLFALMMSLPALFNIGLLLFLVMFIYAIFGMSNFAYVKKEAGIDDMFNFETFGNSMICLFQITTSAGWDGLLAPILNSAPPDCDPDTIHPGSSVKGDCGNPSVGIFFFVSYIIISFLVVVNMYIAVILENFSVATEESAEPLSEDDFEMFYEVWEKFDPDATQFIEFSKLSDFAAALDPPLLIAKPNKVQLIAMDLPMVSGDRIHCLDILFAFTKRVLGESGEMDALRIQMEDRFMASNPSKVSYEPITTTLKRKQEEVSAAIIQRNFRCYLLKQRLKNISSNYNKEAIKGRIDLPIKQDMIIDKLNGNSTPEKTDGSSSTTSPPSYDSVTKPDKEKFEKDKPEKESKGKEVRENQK

Compound | IC50 [1] [nM] | IC50 [2] [nM] | IC50 [3] [nM]
CC[C@H](C)[C@@H]1NC(=O)[C@@H]2CSSC[C@@H]3NC(=O)[C@H](C(C)C)NC(=O)[C@H](CC(C)C)NC(=O)[C@H](CC(N)=O)NC(=O)[C@@H]4CCCN4C(=O)[C@H](CCCNC(=N)N)NC(=O)[C@H](CSSC[C@H](NC(=O)[C@@H](N)CC(=O)O)C(=O)N[C@@H](CC(C)C)C(=O)NCC(=O)N[C@@H](C)C(=O)N[C@@H](Cc4cn(C)c5ccccc45)C(=O)N[C@@H](CCCNC(=N)N)C(=O)N[C@@H](CCCCN)C(=O)N2)NC(=O)[C@H](CSSC[C@@H](C(=O)N[C@@H](CCCCN)C(=O)N[C@@H](Cc2ccc(O)cc2)C(=O)N[C@H](C(=O)N[C@@H](Cc2ccccc2)C(N)=O)C(C)C)NC(=O)[C@H](Cc2c[nH]c4ccccc24)NC(=O)[C@H](CCCCN)NC(=O)[C@H](Cc2c[nH]cn2)NC(=O)[C@H]([C@@H](C)O)NC(=O)[C@H](CCCNC(=N)N)NC(=O)[C@H](CO)NC3=O)NC(=O)[C@H](CCCCN)NC(=O)[C@H](CC(=O)O)NC(=O)[C@H](CC(N)=O)NC(=O)[C@H](CC(=O)O)NC(=O)[C@@H]2CCCN2C1=O [compound 699] | 320 | > 5000 | 340
CSCC[C@@H]1NC(=O)[C@H](C)NC(=O)CNC(=O)[C@H](CC(C)C)NC(=O)[C@@H](NC(=O)[C@@H](N)CC(=O)O)CSSC[C@@H]2NC(=O)[C@@H]3CSSC[C@@H](C(=O)N[C@@H](CCCCN)C(=O)N[C@@H](Cc4ccc(O)cc4)C(=O)N[C@H](C(=O)N[C@@H](Cc4ccccc4)C(N)=O)C(C)C)NC(=O)[C@H](Cc4c[nH]c5ccccc45)NC(=O)[C@H](CCCCN)NC(=O)[C@H](Cc4c[nH]cn4)NC(=O)[C@H]([C@@H](C)O)NC(=O)[C@H](CCCNC(=N)N)NC(=O)[C@H](CO)NC(=O)[C@H](CSSC[C@H](NC(=O)[C@H](CCCCN)NC(=O)[C@H](CCCNC(=N)N)NC1=O)C(=O)N[C@@H](CC(=O)O)C(=O)N1CCC[C@H]1C(=O)N[C@@H](CC(=O)O)C(=O)N[C@@H](CC(N)=O)C(=O)N[C@@H](CC(=O)O)C(=O)N[C@@H](CCCCN)C(=O)N3)NC(=O)[C@H](C(C)C)NC(=O)[C@H](CC(C)C)NC(=O)[C@H](CC(N)=O)NC(=O)[C@@H]1CCCN1C(=O)[C@H](CCCNC(=N)N)NC2=O [compound 700] (H-DCLGAMRKCDPDNDKCCRPNLVCSRTHKWCKYVF-NH2; disulfide 2-17, 9-23, 16-30) | 840 | 35000 | 740
CSCC[C@@H]1NC(=O)[C@H](C)NC(=O)CNC(=O)[C@H](CC(C)C)NC(=O)[C@@H](NC(=O)[C@@H](N)CC(=O)O)CSSC[C@@H]2NC(=O)[C@@H]3CSSC[C@@H](C(=O)N[C@@H](CCCCN)C(=O)N[C@@H](Cc4ccc(O)cc4)C(=O)N[C@H](C(=O)N[C@@H](Cc4ccccc4)C(N)=O)C(C)C)NC(=O)[C@H](Cc4c[nH]c5ccccc45)NC(=O)[C@H](CCCCN)NC(=O)[C@H](Cc4c[nH]cn4)NC(=O)[C@H]([C@@H](C)O)NC(=O)[C@H](CCCNC(=N)N)NC(=O)[C@H](CO)NC(=O)[C@H](CSSC[C@H](NC(=O)[C@H](CCCCN)NC(=O)[C@H](CCCNC(=N)N)NC1=O)C(=O)N[C@@H](CC(=O)O)C(=O)N1CCC[C@H]1C(=O)N[C@@H](CCC(=O)O)C(=O)N[C@@H](CC(N)=O)C(=O)N[C@@H](CC(=O)O)C(=O)N[C@@H](CCCCN)C(=O)N3)NC(=O)[C@H](C(C)C)NC(=O)[C@H](CC(C)C)NC(=O)[C@H](CC(N)=O)NC(=O)[C@@H]1CCCN1C(=O)[C@H](CCCNC(=N)N)NC2=O [compound 701] (H-DCLGAMRKCDPENDKCCRPNLVCSRTHKWCKYVF-NH2; disulfide 2-17, 9-23, 16-30) | 1500 | 43000 | 970
CC(C)C[C@@H]1NC(=O)[C@@H](NC(=O)[C@@H](N)CC(=O)O)CSSC[C@@H]2NC(=O)[C@@H]3CSSC[C@@H](C(=O)N[C@@H](CCCCN)C(=O)N[C@@H](Cc4ccc(O)cc4)C(=O)N[C@H](C(=O)N[C@@H](Cc4ccccc4)C(N)=O)C(C)C)NC(=O)[C@H](Cc4c[nH]c5ccccc45)NC(=O)[C@H](CCCCN)NC(=O)[C@H](Cc4c[nH]cn4)NC(=O)[C@H]([C@@H](C)O)NC(=O)[C@H](CCCNC(=N)N)NC(=O)[C@H](CO)NC(=O)[C@H](CSSC[C@H](NC(=O)[C@H](CCCCN)NC(=O)[C@H](CCCNC(=N)N)NC(=O)[C@H](Cc4ccccc4)NC(=O)[C@H](C)NC(=O)CNC1=O)C(=O)N[C@@H](CC(=O)O)C(=O)N1CCC[C@H]1C(=O)N[C@@H](CC(=O)O)C(=O)N[C@@H](CC(N)=O)C(=O)N[C@@H](CC(=O)O)C(=O)N[C@@H](CCCCN)C(=O)N3)NC(=O)[C@H](C(C)C)NC(=O)[C@H](CC(C)C)NC(=O)[C@H](CC(N)=O)NC(=O)[C@@H]1CCCN1C(=O)[C@H](CCCNC(=N)N)NC2=O [compound 702] (H-DCLGAFRKCDPDNDKCCRPNLVCSRTHKWCKYVF-NH2; disulfide 2-17, 9-23, 16-30) | 370 | 43000 | 720
CC[C@H](C)[C@@H]1NC(=O)[C@@H]2CSSC[C@@H]3NC(=O)[C@H](C(C)C)NC(=O)[C@H](CC(C)C)NC(=O)[C@H](CC(N)=O)NC(=O)[C@@H]4CCCN4C(=O)[C@H](CCCNC(=N)N)NC(=O)[C@H](CSSC[C@H](NC(=O)[C@@H](N)CC(=O)O)C(=O)N[C@@H](CC(C)C)C(=O)NCC(=O)N[C@@H](C)C(=O)N[C@@H](Cc4ccccc4)C(=O)N[C@@H](CCCNC(=N)N)C(=O)N[C@@H](CCCCN)C(=O)N2)NC(=O)[C@H](CSSC[C@@H](C(=O)N[C@@H](CCCCN)C(=O)N[C@@H](Cc2ccc(O)cc2)C(=O)N[C@H](C(=O)N[C@@H](Cc2ccccc2)C(N)=O)C(C)C)NC(=O)[C@H](Cc2c[nH]c4ccccc24)NC(=O)[C@H](CCCCN)NC(=O)[C@H](Cc2c[nH]cn2)NC(=O)[C@H]([C@@H](C)O)NC(=O)[C@H](CCCNC(=N)N)NC(=O)[C@H](CO)NC3=O)NC(=O)[C@H](CCCCN)NC(=O)[C@H](CC(=O)O)NC(=O)[C@H](CC(N)=O)NC(=O)[C@H](CCC(=O)O)NC(=O)[C@@H]2CCCN2C1=O [compound 703] (H-DCLGAFRKCIPENDKCCRPNLVCSRTHKWCKYVF-NH2; disulfide 2-17, 9-23, 16-30) | 200 | 45000 | 610
CC[C@H](C)[C@@H]1NC(=O)[C@@H]2CSSC[C@@H]3NC(=O)[C@H](C(C)C)NC(=O)[C@H](CC(C)C)NC(=O)[C@H](CC(N)=O)NC(=O)[C@@H]4CCCN4C(=O)[C@H](CCCNC(=N)N)NC(=O)[C@H](CSSC[C@H](NC(=O)[C@@H](N)CC(=O)O)C(=O)N[C@@H](CC(C)C)C(=O)NCC(=O)N[C@@H](C(C)C)C(=O)N[C@@H](CCSC)C(=O)N[C@@H](CCCNC(=N)N)C(=O)N[C@@H](CCCCN)C(=O)N2)NC(=O)[C@H](CSSC[C@@H](C(=O)N[C@@H](CCCCN)C(=O)N[C@@H](Cc2ccc(O)cc2)C(=O)N[C@H](C(=O)N[C@@H](Cc2ccccc2)C(N)=O)C(C)C)NC(=O)[C@H](Cc2c[nH]c4ccccc24)NC(=O)[C@H](CCC(=O)O)NC(=O)[C@H](Cc2c[nH]cn2)NC(=O)[C@H]([C@@H](C)O)NC(=O)[C@H](CCCNC(=N)N)NC(=O)[C@H](CO)NC3=O)NC(=O)[C@H](CCCCN)NC(=O)[C@H](CC(=O)O)NC(=O)[C@H](CC(N)=O)NC(=O)[C@H](CC(=O)O)NC(=O)[C@@H]2CCCN2C1=O [compound 704] (H-DCLGVMRKCIPDNDKCCRPNLVCSRTHEWCKYVF-NH2; disulfide 2-17, 9-23, 16-30) | > 5000 | 49000 | 990
